This passage reports efflux ratio and IC50 results from patent publication US11851440B2, “Modulators of eukaryotic initiation factor 2B, compositions and methods” (Denali Therapeutics Inc., priority 2017, dated 2023).

Read-outs that look alike come from different tables or passages of the source. A value given as a limit tells only on which side of the number the result lay.

The target of series [1] is T1, P-gp (P-glycoprotein, MDR1) (Homo sapiens, UniProt P08183).
T1 construct: host or cells: MDCKII-MDR1 cells (pre-plated, Corning HTS Transwell-96)
The experiment in a line: MDCKII-MDR1 permeability, bidirectional assay. The class given is in vitro ADME. As to conditions: dog, MDCK-MDR1, MDCKII-MDR1 cells, HBSS+12.5 mM HEPES pH 7.4. The procedure:
The blood brain barrier (BBB) separates circulating blood from the extracellular fluid of the central nervous system (CNS). […] A bidirectional assay (Apical to Basolateral (A→B) and Basolateral to Apical (B→A)), in the absence and in the presence of GF120918 (a P-gp inhibitor) was conducted using pre-plated MDCKII-MDR1 cells (Corning HTS Transwell-96) obtained from SOLVO Biotechnology. The assay was run at 3 μM for 90 min (minutes) in triplicate using a HBSS+12.5 mM HEPES pH 7.4 transport buffer. Following incubation of samples from donor and receiver, wells were removed and measured by LC-MS/MS. Samples were extracted by protein precipitation with acetonitrile containing an appropriate internal standard (IS) having a known mass and molecular weight. The precipitate was centrifuged for 10 min at 3000 rpm (revolutions per minute). The supernatants were then collected, diluted if necessary, and injected on to the LC-MS/MS system. Specific parent/daughter ion pairs for the test article and IS were used to selectively measure the test articles. Papp (apparent permeability expressed in nm/sec [nanometer/second]) values were calculated according to the following equation: […]
Where dQ/dt is the permeability rate, C0 is the initial concentration in the donor solution (expressed as IS ratio), A and B are the surface areas of the filter (the surface area of the cell monolayer).
Monolayer efflux ratios (ER) were derived using the following equation: […]

Series [2] deals with ISR pathway (ATF4 translation). The experiment in a line: ATF4 Nano Luciferase reporter integrated stress response (ISR) assay in H4 ATF4-NLuc cells. The following applies: Homo sapiens, compound 30 minutes, then 50 um sodium arsenite for 6 hours, luminescence readout. Background: Reporter assays use an easily measured gene product as a stand-in for the process of interest.
[3] abbreviates: read-out: Activity (IC50), H4 ATF4-NLuc (clone 17) cells.

Usually efflux ratio stands for a quotient of directional permeabilities that is used to spot active efflux. What is called IC50 is the midpoint of a concentration-inhibition curve.

T1 sequence (P08183 whole entry): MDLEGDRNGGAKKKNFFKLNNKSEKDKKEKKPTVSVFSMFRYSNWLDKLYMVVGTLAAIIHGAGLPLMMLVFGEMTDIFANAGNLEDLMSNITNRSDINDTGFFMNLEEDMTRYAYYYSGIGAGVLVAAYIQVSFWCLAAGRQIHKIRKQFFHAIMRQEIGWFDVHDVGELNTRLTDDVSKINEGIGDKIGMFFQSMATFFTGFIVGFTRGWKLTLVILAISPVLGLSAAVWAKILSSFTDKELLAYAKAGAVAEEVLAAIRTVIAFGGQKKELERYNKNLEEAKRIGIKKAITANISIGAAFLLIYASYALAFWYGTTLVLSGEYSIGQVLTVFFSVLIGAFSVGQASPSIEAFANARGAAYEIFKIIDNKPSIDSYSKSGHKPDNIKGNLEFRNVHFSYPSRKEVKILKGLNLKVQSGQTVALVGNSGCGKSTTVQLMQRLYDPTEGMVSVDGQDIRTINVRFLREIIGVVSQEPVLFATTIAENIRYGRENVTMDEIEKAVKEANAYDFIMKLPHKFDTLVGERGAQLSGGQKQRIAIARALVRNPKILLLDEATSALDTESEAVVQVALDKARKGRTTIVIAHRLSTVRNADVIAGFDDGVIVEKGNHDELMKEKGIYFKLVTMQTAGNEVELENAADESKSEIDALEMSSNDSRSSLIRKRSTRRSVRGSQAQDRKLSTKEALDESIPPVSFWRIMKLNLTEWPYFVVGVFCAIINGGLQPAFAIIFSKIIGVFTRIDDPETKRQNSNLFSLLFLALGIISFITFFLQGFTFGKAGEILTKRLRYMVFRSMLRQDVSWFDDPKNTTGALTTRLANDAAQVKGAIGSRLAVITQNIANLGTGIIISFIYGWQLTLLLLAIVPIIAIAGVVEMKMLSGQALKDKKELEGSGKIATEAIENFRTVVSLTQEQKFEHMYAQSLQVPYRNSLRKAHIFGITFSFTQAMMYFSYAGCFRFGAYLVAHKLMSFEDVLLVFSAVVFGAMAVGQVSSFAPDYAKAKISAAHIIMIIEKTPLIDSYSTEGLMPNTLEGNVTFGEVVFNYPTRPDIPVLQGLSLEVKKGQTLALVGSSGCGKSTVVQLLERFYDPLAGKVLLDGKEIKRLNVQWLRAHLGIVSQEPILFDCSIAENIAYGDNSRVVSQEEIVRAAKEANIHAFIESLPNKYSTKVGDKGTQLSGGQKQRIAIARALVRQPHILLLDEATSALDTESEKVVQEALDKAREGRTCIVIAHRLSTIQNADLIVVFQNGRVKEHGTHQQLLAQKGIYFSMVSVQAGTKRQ

For the compound `O=C(CO[C@H]1C[C@@H](OC(F)(F)F)C1)NC12CC(c3cnn(-c4ccc(Cl)c(F)c4)c3)(C1)C2` [Example 236, N-(3-(1-(4-chloro-3-fluorophenyl)-1H-pyrazol-4-yl)bicyclo[1.1.1]pentan-1-yl)-2-(3-cis-(trifluoromethoxy)cyclobutoxy)acetamide], in series [1], the efflux ratio at 90 min, 3 μM is ≤ 2.5. For the same compound, the IC50 in series [2] (H4 ATF4-NLuc (clone 17) cells) is 21.5 nM; in series [2] (setting [3]), < 1000 nM.

As for `O=C(CO[C@H]1C[C@@H](OC(F)(F)F)C1)NC12CC(c3cc(-c4ccc(Cl)c(F)c4)no3)(C1)C2` [Example 248, N-(3-(3-(4-chloro-3-fluorophenyl)isoxazol-5-yl)bicyclo[1.1.1]pentan-1-yl)-2-(3-cis-(trifluoromethoxy)cyclobutoxy)acetamide], in series [1], the efflux ratio at 90 min, 3 μM was ≤ 2.5. In addition, the values for the IC50 in series [2] (H4 ATF4-NLuc (clone 17) cells) and in series [2] (setting [3]) were 28.2 nM and < 1000 nM, respectively.

As for `O=C(CO[C@H]1C[C@@H](OC(F)(F)F)C1)NC12CC(n3cnc(-c4ccc(Cl)cc4F)c3)(C1)C2` [Example 146, N-(3-(4-(4-chloro-2-fluorophenyl)-1H-imidazol-1-yl)bicyclo[1.1.1]pentan-1-yl)-2-(3-cis-(trifluoromethoxy)cyclobutoxy)acetamide], the efflux ratio at 90 min, 3 μM in series [1] was ≤ 2.5. Also, the results for the IC50 in series [2] (H4 ATF4-NLuc (clone 17) cells) and in series [2] (setting [3]) were 3.7 nM and < 1000 nM, respectively.

As for `O=C(CO[C@H]1C[C@@H](OC(F)(F)F)C1)NC12CC(n3cnc(-c4ccc(Cl)cc4)c3)(C1)C2` [Example 139, N-(3-(4-(4-chlorophenyl)-1H-imidazol-1-yl)bicyclo[1.1.1]pentan-1-yl)-2-(3-cis-(trifluoromethoxy)cyclobutoxy)acetamide], in series [1], the efflux ratio at 90 min, 3 μM was ≤ 2.5. Further, the 50% inhibitory concentration (IC50) in series [2] (H4 ATF4-NLuc (clone 17) cells) is 4.3 nM; in series [2] (setting [3]), < 1000 nM.

As for `O=C(COc1ccc(Cl)c(F)c1)NC12CC(c3nnc([C@@H]4C[C@H]4COC(F)(F)F)o3)(C1)C2` (single isomer, unassigned) [Example 81, 2-(4-chloro-3-fluoro-phenoxy)-N-[3-[5-[2-trans-(trifluoromethoxymethyl)cyclopropyl]-1,3,4-oxadiazol-2-yl]-1-bicyclo[1.1.1]pentanyl]acetamide], in series [1], the efflux ratio at 90 min, 3 μM is ≤ 2.5. The IC50 in series [2] (H4 ATF4-NLuc (clone 17) cells) is 11.8 nM; in series [2] (setting [3]) it was < 1000 nM.

Consider `O=C(COc1ccc(Cl)c(F)c1)NC12CC(c3nnc(CCCOC(F)(F)F)o3)(C1)C2` [Example 49, 2-(4-chloro-3-fluorophenoxy)-N-(3-(5-(3-(trifluoromethoxy)propyl)-1,3,4-oxadiazol-2-yl)bicyclo[1.1.1]pentan-1-yl)acetamide], for which the efflux ratio at 90 min, 3 μM in series [1] was ≤ 2.5. Besides, the half-inhibitory concentration (IC50) was 18.2 nM in series [2] (H4 ATF4-NLuc (clone 17) cells) and < 1000 nM in series [2] (setting [3]).

In the case of `O=C(CO[C@H]1C[C@@H](OC(F)(F)F)C1)NC12CC(n3cnc(-c4ccc(Cl)c(F)c4F)c3)(C1)C2` [Example 270, N-(3-(4-(4-chloro-2,3-difluorophenyl)-1H-imidazol-1-yl)bicyclo[1.1.1]pentan-1-yl)-2-(3-cis-(trifluoromethoxy)cyclobutoxy)acetamide], the efflux ratio at 90 min, 3 μM in series [1] was ≤ 2.5. The IC50 was 1.1 nM in series [2] (H4 ATF4-NLuc (clone 17) cells) and < 1000 nM in series [2] (setting [3]).

With `O=C(COc1ccc(Cl)c(F)c1)NC12CC(NCCO[C@H]3C[C@@H](OC(F)(F)F)C3)(C1)C2` [Example 133, 2-(4-chloro-3-fluoro-phenoxy)-N-[1-[2-[cis-3-(trifluoromethoxy)cyclobutoxy]ethylamino]-3-bicyclo[1.1.1]pentanyl]acetamide], the efflux ratio at 90 min, 3 μM in series [1] is ≤ 2.5. For the same compound, the IC50 is 18.1 nM in series [2] (H4 ATF4-NLuc (clone 17) cells) and < 1000 nM in series [2] (setting [3]).

As for `O=C(CO[C@H]1C[C@@H](OC(F)(F)F)C1)NC12CC(n3cnc(-c4ccc(C(F)(F)F)cc4O)c3)(C1)C2` [Example 254, N-(3-(4-(2-hydroxy-4-(trifluoromethyl)phenyl)-1H-imidazol-1-yl)bicyclo[1.1.1]pentan-1-yl)-2-(3-cis-(trifluoromethoxy)cyclobutoxy)acetamide], the efflux ratio at 90 min, 3 μM in series [1] was ≤ 2.5. Moreover, the 50% inhibitory concentration (IC50) was 5.3 nM in series [2] (H4 ATF4-NLuc (clone 17) cells) and < 1000 nM in series [2] (setting [3]).

Take `O=C(CO[C@H]1C[C@@H](OC(F)(F)F)C1)NC12CC(n3cnc(-c4ccc(Cl)c(F)c4)c3)(C1)C2` [Example 70, N-[3-[4-(4-chloro-3-fluoro-phenyl)imidazol-1-yl]-1-bicyclo[1.1.1]pentanyl]-2-[3-cis-(trifluoromethoxy)cyclobutoxy]acetamide]: the efflux ratio at 90 min, 3 μM in series [1] is ≤ 2.5. Also, the IC50 was 2.8 nM in series [2] (H4 ATF4-NLuc (clone 17) cells) and < 1000 nM in series [2] (setting [3]).
